# Patent publication US11969440B2, “Metal (hydr)oxide composite comprising poorly soluble drug, method for manufacturing same, and pharmaceutical composition comprising same” (priority 2020, dated 2024)
# Key:
# [1] = single oral 40 mg/kg, MgO:HPMC compositions of Comparative Examples 2 to 4, FIG. 41 to 43
# [2] = cited from earlier work
smiles,measurement,setting,value
"O=c1[nH]cc(F)c(=O)[nH]1 [Example 5-FU, 5-FU]",bioavailability of the compound as MgO composite versus the compound alone,[1],not improved
same,solubility in water,[2],12.2 mg/mL
